Test results: PMC7026418, “The kinase polypharmacology landscape of clinical PARP inhibitors” (Scientific Reports, 2020)
Like-named read-outs stand apart in the source and are kept apart here.

Tests used:
Test in all cases: biochemical
Parameters in all cases: DiscoveRx KINOMEscan active site-directed competition binding; percent of control kinase bound to immobilised ligand
MAP3K1 = MAP3K1 (Homo sapiens, UniProt Q13233)
LZK = target: T1, LZK (Homo sapiens, UniProt O43283)
T1 construct: gene MAP3K13
T1 sequence (O43283 1-966): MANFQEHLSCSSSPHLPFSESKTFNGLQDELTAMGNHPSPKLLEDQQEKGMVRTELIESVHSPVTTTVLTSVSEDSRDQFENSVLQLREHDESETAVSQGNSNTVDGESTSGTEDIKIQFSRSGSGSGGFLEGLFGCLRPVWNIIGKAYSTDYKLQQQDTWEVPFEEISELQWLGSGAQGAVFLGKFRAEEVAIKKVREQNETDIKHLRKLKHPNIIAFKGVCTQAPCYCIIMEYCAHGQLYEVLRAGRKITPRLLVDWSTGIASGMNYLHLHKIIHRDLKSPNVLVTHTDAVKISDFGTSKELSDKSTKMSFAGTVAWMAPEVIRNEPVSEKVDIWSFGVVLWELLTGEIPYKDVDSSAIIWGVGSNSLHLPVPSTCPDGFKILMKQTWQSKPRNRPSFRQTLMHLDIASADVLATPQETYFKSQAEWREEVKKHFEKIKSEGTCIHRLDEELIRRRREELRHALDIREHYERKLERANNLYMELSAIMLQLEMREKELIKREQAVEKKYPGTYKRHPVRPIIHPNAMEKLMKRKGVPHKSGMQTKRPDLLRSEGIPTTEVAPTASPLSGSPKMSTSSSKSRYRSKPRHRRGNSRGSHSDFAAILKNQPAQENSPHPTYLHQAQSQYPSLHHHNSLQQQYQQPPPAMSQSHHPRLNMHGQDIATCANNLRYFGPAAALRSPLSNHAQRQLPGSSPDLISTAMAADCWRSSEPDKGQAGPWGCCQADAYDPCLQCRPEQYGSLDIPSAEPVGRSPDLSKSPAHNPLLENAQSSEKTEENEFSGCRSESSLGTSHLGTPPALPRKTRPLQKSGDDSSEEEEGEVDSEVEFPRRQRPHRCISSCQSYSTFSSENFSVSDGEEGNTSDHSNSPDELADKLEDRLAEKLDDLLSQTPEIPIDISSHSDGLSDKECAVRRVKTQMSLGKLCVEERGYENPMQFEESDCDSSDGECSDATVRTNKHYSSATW

EPHB3 = target: T2, EPHB3 (Homo sapiens, UniProt P54753)
T2 sequence (P54753 1-998): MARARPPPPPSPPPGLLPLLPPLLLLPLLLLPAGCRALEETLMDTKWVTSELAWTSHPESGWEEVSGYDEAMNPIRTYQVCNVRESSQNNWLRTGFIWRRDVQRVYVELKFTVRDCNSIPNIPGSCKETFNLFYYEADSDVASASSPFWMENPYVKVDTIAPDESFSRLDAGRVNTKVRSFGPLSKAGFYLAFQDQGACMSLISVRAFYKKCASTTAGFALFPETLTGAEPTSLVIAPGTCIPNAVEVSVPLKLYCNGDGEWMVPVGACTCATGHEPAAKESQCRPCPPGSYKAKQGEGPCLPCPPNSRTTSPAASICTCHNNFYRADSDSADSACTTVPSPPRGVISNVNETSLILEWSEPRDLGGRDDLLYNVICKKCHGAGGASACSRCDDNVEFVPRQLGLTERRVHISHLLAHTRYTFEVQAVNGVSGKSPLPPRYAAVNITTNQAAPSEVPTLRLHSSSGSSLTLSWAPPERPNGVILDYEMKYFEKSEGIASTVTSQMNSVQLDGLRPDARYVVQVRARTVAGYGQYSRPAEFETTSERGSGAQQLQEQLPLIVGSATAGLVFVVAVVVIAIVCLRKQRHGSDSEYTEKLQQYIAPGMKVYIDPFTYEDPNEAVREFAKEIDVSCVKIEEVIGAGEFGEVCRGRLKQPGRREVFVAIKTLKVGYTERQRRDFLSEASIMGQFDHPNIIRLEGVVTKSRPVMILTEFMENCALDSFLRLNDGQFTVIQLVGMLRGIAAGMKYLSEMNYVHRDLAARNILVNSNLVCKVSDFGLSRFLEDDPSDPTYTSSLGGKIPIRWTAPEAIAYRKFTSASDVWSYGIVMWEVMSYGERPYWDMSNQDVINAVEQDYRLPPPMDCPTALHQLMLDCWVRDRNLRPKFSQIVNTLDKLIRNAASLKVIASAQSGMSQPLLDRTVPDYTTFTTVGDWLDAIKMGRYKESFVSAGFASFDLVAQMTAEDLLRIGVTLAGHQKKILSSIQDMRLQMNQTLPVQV

ACVR2A = ACVR2A (Homo sapiens, UniProt P27037)
Chain of ACVR2A (P27037 whole entry): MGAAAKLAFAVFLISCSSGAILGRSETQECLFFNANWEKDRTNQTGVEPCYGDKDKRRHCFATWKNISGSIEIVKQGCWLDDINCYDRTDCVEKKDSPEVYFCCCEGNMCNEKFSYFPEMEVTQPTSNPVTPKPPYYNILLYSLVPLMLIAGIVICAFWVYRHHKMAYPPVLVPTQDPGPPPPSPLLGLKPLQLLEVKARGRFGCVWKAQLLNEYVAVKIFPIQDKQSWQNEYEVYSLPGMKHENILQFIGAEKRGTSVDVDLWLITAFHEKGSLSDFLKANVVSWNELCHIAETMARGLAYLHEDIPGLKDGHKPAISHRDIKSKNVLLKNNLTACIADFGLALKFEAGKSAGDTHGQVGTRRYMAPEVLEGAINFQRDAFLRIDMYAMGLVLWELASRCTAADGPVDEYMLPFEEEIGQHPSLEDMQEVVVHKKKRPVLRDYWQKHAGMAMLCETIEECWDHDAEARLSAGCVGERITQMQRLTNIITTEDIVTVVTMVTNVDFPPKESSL

[1] = read-out: Niraparib (MK-4827) / %Ctrl @ 10000nM
[2] = read-out: Olaparib / %Ctrl @ 10000nM
[3] = read-out: Rucaparib / %Ctrl @ 10000nM, binding competition, % of control
[4] = read-out: Talazoparib (BMN 673) / %Ctrl @ 10000nM

Chain of MAP3K1 (Q13233 whole entry): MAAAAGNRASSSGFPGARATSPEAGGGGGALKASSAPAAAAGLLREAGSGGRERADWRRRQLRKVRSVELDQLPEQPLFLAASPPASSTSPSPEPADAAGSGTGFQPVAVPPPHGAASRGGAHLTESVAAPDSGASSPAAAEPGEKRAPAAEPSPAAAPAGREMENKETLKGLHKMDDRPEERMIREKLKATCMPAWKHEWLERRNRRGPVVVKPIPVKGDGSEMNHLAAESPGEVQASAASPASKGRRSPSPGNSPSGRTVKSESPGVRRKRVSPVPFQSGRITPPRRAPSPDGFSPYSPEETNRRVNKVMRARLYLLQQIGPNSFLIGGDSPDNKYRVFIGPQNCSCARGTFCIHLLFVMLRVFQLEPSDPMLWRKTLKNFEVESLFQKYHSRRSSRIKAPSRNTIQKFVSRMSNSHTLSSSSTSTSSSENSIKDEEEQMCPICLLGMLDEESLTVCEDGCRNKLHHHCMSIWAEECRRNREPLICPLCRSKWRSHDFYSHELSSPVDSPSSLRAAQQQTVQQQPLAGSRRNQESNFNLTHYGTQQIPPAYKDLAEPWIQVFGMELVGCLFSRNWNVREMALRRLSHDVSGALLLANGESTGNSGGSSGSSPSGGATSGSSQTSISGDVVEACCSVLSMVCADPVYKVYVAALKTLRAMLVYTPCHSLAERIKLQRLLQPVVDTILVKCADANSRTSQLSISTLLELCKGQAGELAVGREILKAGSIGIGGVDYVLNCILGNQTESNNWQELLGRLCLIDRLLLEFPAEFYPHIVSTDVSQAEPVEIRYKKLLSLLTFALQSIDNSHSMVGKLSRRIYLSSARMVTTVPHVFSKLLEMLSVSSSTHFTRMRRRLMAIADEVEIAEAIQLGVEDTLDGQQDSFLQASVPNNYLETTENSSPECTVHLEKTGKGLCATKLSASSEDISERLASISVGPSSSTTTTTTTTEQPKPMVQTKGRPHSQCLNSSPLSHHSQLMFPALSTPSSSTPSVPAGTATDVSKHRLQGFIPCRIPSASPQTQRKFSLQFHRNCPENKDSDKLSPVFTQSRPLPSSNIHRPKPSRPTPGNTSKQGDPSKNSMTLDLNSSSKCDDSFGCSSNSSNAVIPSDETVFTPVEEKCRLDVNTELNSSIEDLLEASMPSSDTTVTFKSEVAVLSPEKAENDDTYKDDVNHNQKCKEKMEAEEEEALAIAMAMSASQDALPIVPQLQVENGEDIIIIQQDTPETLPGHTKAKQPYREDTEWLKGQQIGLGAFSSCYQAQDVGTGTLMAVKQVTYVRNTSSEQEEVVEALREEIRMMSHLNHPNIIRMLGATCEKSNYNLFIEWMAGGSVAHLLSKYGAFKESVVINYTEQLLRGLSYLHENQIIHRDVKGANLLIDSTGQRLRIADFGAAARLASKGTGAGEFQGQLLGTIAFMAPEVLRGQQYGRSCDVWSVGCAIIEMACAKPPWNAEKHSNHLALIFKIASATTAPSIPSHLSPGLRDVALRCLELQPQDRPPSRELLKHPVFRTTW

NC(=O)c1cccc2cn(-c3ccc([C@@H]4CCCNC4)cc3)nc12 [Niraparib]
percent of control binding at 10 µM (MAP3K1; [1]): 92%
percent of control binding at 10 µM (LZK; [1]): 96%
percent of control binding at 10 µM (EPHB3; [1]): 82%
percent of control binding at 10 µM (ACVR2A; [1]): 99%

O=C(c1cc(Cc2n[nH]c(=O)c3ccccc23)ccc1F)N1CCN(C(=O)C2CC2)CC1 [Olaparib]
percent of control binding at 10 µM (MAP3K1; [2]): 91%
percent of control binding at 10 µM (LZK; [2]): 100%
percent of control binding at 10 µM (EPHB3; [2]): 87%
percent of control binding at 10 µM (ACVR2A; [2]): 95%

CNCc1ccc(-c2[nH]c3cc(F)cc4c3c2CCNC4=O)cc1 [Rucaparib]
percent of control binding at 10 µM (MAP3K1; [3]): 98%
percent of control binding at 10 µM (LZK; [3]): 100%
percent of control binding at 10 µM (EPHB3; [3]): 99%
percent of control binding at 10 µM (ACVR2A; [3]): 100%

Cn1ncnc1[C@H]1c2n[nH]c(=O)c3cc(F)cc(c23)N[C@@H]1c1ccc(F)cc1 [Talazoparib]
percent of control binding at 10 µM (MAP3K1; [4]): 97%
percent of control binding at 10 µM (LZK; [4]): 100%
percent of control binding at 10 µM (EPHB3; [4]): 100%
percent of control binding at 10 µM (ACVR2A; [4]): 100%
